{
  "source": "patent US20240358692A1",
  "about": "“TREATMENT OF SCLERODERMA” (Aisa Pharma, Inc., priority 2023, published 2024)",
  "system": "participants with SSc-RP",
  "assay": "SHAQ - Visual Analog Scale - Overall Disease Severity",
  "type": "in vivo, human",
  "from_the_text": "The standard, validated, patient reported outcome measures tool for SSc patients, the Scleroderma Health Assessment Questionnaire (SHAQ), will be used to assess the participant qualify of life. Details are attached in the Appendix. The participant quality of life will be scored, and a disability index calculated for each questionnaire completed by the patient at Screening and each in-clinic visit. The absolute change in participant quality of life from baseline to the end of each dosing period will be calculated similar to frequency data as before.\nThe standard, validated, patient reported outcome measures tool for SSc patients, the SHAQ, was collected at the time points specified in the study schedules (FIG. 2 and FIGS. 4A and 4B) to assess the participant's quality of life. The SHAQ included a Raynaud's VAS that will also be reported separately.",
  "key": {"[1]": {"conditions": "Sensitivity Analysis (diagnosis of SSc), Modified ITT, Part A, Day 12, arms Cilnidipine 10 mg, Tadalafil 5 mg, Cilnidipine 10 mg + Tadalafil 5 mg"}, "[2]": {"conditions": "cilnidipine 10 mg (combination: + tadalafil 5 mg)"}, "[3]": {"conditions": "cilnidipine 20 mg (combination: + tadalafil 5 mg)"}},
  "data": [
    {"molecule": "COCCOC(=O)C1=C(C)NC(C)=C(C(=O)OC/C=C/c2ccccc2)C1c1cccc([N+](=O)[O-])c1", "note": "(stereo not shown) [Cilnidipine]", "values": [
      {"measurement": "SHAQ VAS Overall Disease Severity, Change from Baseline, Min", "setting": "Pooled Cilnidipine, PP, Part A", "result": "−3.10"},
      {"measurement": "SHAQ VAS Overall Disease Severity, Change from Baseline, Q1", "setting": "Pooled Cilnidipine, PP, Part A", "result": "−1.850"},
      {"measurement": "SHAQ VAS Overall Disease Severity, Change from Baseline, Q3", "setting": "Pooled Cilnidipine, PP, Part A", "result": "−0.950"},
      {"measurement": "SHAQ VAS Overall Disease Severity, Day 12, Max", "setting": "Pooled Cilnidipine, PP, Part A", "result": 5.20},
      {"measurement": "SHAQ VAS Overall Disease Severity, Day 12, Median", "setting": "Pooled Cilnidipine, PP, Part A", "result": 1.300},
      {"measurement": "SHAQ VAS Overall Disease Severity, Day 12, Min", "setting": "Pooled Cilnidipine, PP, Part A", "result": 0.00},
      {"measurement": "SHAQ VAS Overall Disease Severity, Day 12, Q1", "setting": "Pooled Cilnidipine, PP, Part A", "result": 0.350},
      {"measurement": "SHAQ VAS Overall Disease Severity, Day 12, Q3", "setting": "Pooled Cilnidipine, PP, Part A", "result": 1.650},
      {"measurement": "SHAQ VAS Overall Disease Severity, Percent Change from Baseline, Max", "setting": "Pooled Cilnidipine, PP, Part A", "result": "−26.8"},
      {"measurement": "SHAQ VAS Overall Disease Severity, Percent Change from Baseline, Mean (SD)", "setting": "Pooled Cilnidipine, PP, Part A", "result": "−61.10 (23.658)"},
      {"measurement": "SHAQ VAS Overall Disease Severity, Percent Change from Baseline, Median", "setting": "Pooled Cilnidipine, PP, Part A", "result": "−60.00"},
      {"measurement": "SHAQ VAS Overall Disease Severity, Percent Change from Baseline, Min", "setting": "Pooled Cilnidipine, PP, Part A", "result": "−100.0"},
      {"measurement": "SHAQ VAS Overall Disease Severity, Percent Change from Baseline, Q1", "setting": "Pooled Cilnidipine, PP, Part A", "result": "−76.19"},
      {"measurement": "SHAQ Visual Analogue Scale - Overall Disease Severity: Change from Baseline, Median", "setting": "[1]", "result": "−1.500"},
      {"measurement": "SHAQ Visual Analogue Scale - Overall Disease Severity: In-Clinic Visit (Day 12), Median", "setting": "[1]", "result": 1.900},
      {"measurement": "SHAQ Visual Analogue Scale - Overall Disease Severity: In-Clinic Visit (Day 12), Median", "setting": "Sensitivity Analysis (diagnosis of SSc), Modified ITT, Part A, Day 12, arms Cilnidipine 20 mg, Cilnidipine 20 mg + Tadalafil 5 mg", "result": 1.200},
      {"measurement": "VAS Overall Severity Change from Baseline Max", "setting": "[2]", "result": 0.20},
      {"measurement": "VAS Overall Severity Change from Baseline Mean", "setting": "[2]", "result": "−0.900"},
      {"measurement": "VAS Overall Severity Change from Baseline Median", "setting": "[2]", "result": "−0.950"},
      {"measurement": "VAS Overall Severity Change from Baseline Min", "setting": "[2]", "result": "−1.90"},
      {"measurement": "VAS Overall Severity Change from Baseline Q1", "setting": "[2]", "result": "−1.700"},
      {"measurement": "VAS Overall Severity Change from Baseline Q3", "setting": "[2]", "result": "−0.100"},
      {"measurement": "VAS Overall Severity Day 12 Max", "setting": "[2]", "result": 5.20},
      {"measurement": "VAS Overall Severity Day 12 Min", "setting": "[2]", "result": 0.00},
      {"measurement": "VAS Overall Severity Day 12 Q1", "setting": "[2]", "result": 0.100},
      {"measurement": "VAS Overall Severity Day 12 Q3", "setting": "[2]", "result": 3.550},
      {"measurement": "VAS Overall Severity Percent Change from Baseline Max", "setting": "[2]", "result": "−26.8", "unit": "%"},
      {"measurement": "VAS Overall Severity Percent Change from Baseline Mean", "setting": "[2]", "result": "−56.96", "unit": "%"},
      {"measurement": "VAS Overall Severity Percent Change from Baseline Median", "setting": "[2]", "result": "−44.12", "unit": "%"},
      {"measurement": "VAS Overall Severity Percent Change from Baseline Min", "setting": "[2]", "result": "−100.0", "unit": "%"},
      {"measurement": "VAS Overall Severity Percent Change from Baseline Q1", "setting": "[2]", "result": "−100.00", "unit": "%"},
      {"measurement": "VAS Overall Severity Percent Change from Baseline Q3", "setting": "[2]", "result": "−26.76", "unit": "%"},
      {"measurement": "VAS Overall Severity Change from Baseline Max", "setting": "[3]", "result": "−1.50"},
      {"measurement": "VAS Overall Severity Change from Baseline Mean", "setting": "[3]", "result": "−1.633,"},
      {"measurement": "VAS Overall Severity Change from Baseline Median", "setting": "[3]", "result": "−1.600"},
      {"measurement": "VAS Overall Severity Change from Baseline Min", "setting": "[3]", "result": "−1.80"},
      {"measurement": "VAS Overall Severity Change from Baseline Q1", "setting": "[3]", "result": "−1.800"},
      {"measurement": "VAS Overall Severity Change from Baseline Q3", "setting": "[3]", "result": "−1.500"},
      {"measurement": "VAS Overall Severity Day 12 Max", "setting": "[3]", "result": 1.40},
      {"measurement": "VAS Overall Severity Day 12 Median", "setting": "[3]", "result": 1.200},
      {"measurement": "VAS Overall Severity Day 12 Min", "setting": "[3]", "result": 0.50},
      {"measurement": "VAS Overall Severity Day 12 Q1", "setting": "[3]", "result": 0.500},
      {"measurement": "VAS Overall Severity Day 12 Q3", "setting": "[3]", "result": 1.400},
      {"measurement": "VAS Overall Severity Percent Change from Baseline Max", "setting": "[3]", "result": "−51.7", "unit": "%"},
      {"measurement": "VAS Overall Severity Percent Change from Baseline Mean", "setting": "[3]", "result": "−62.64", "unit": "%"},
      {"measurement": "VAS Overall Severity Percent Change from Baseline Median", "setting": "[3]", "result": "−60.00", "unit": "%"},
      {"measurement": "VAS Overall Severity Percent Change from Baseline Min", "setting": "[3]", "result": "−76.2", "unit": "%"},
      {"measurement": "VAS Overall Severity Percent Change from Baseline Q1", "setting": "[3]", "result": "−76.19", "unit": "%"},
      {"measurement": "VAS Overall Severity Percent Change from Baseline Q3", "setting": "[3]", "result": "−51.72", "unit": "%"}
    ]}
  ]
}
